Results published in patent US8329644B2, “Lantibiotic-based compounds having antimicrobial activity” (Novacta Biosystems Limited, priority 2007, dated 2012).
In brackets after ≈: the same amount, converted by molar mass. Read-outs that look alike come from different tables or passages of the source.

What was measured:
Clostridium difficile = assay: MIC, Clostridium difficile in Wilkins-Chalgren Anaerobe Agar; type: cell-based; set-up: key: MIC in μg/ml (two-fold dilutions, 0.06–64)
Protocol: (§1) Susceptibility testing for all aerobic organisms with the exception of Streptococcus pneumoniae was performed by two-fold serial antibiotic dilutions in Mueller-Hinton Broth supplemented with 50 μg/ml Ca^2+ unless otherwise noted. Susceptibility testing for S. pneumoniae was performed by two-fold serial antibiotic dilutions in Brain-Heart-Infusion Broth supplemented with 50 μg/ml Ca^2+ unless otherwise noted. Actively growing broth cultures were diluted to contain […] by adjusting to an OD600 of 0.2-0.3. They were then diluted a further 1:100 in fresh sterile broth. The assays were performed in duplicate in sterile 96-well microtitre plates in a total volume of 200 μl (160 μl broth, 20 μl antimicrobial agent, 20 μl inoculum) in a concentration range from 64 μg/ml to 0.06 μg/ml. […] Clinical isolates of Clostridium difficile were tested in Wilkins-Chalgren Anaerobe Agar under anaerobic conditions. In all cases, vancomycin was used as a reference antibiotic

S. pneumoniae = assay: MIC susceptibility testing, S. pneumoniae (Brain-Heart-Infusion Broth); type: cell-based, Streptococcus pneumoniae; settings: Streptococcus pneumoniae; S. pneumoniae R6; Table 2; read-out: MIC
Protocol: as §1

Bacteroides fragilis = assay: MIC against intestinal flora organisms, Bacteroides fragilis; type: cell-based; settings: NCTC9343; Bacteroides fragilis NCTC 9343; Table 5; read-out: Minimal Inhibitory Concentration (MIC)
E. faecalis = assay: MIC susceptibility testing, E. faecalis; type: cell-based; settings: Enterococcus faecalis; E. faecalis 29212; Table 2; read-out: MIC
Protocol: as §1

[1] = test system: Bacteroides thetaiotaomicron; assay: MIC against intestinal flora organisms, Bacteroides thetaiotaomicron; type: cell-based; settings: NCTC10582; Bacteroides thetaiotaomicron NCTC 10582; Table 5; read-out: Minimal Inhibitory Concentration (MIC)
S. epidermidis = assay: MIC susceptibility testing, S. epidermidis; type: cell-based, Staphylococcus epidermidis; settings: Staphylococcus epidermidis
Protocol: as §1

E. coli = assay: MIC against intestinal flora organisms, E. coli; type: cell-based; settings: for MIC: Escherichia coli, read-out: Minimal Inhibitory Concentration (MIC)
Protocol: as §1

[2] = test system: Bifidobacterium adolescentis; assay: MIC against intestinal flora organisms, Bifidobacterium adolescentis; type: cell-based; settings: NCTC11814; Bifidobacterium adolescentis NCTC 11814; Table 5; read-out: Minimal Inhibitory Concentration (MIC)
Bifidobacterium longum = assay: MIC against intestinal flora organisms, Bifidobacterium longum; type: cell-based; settings: NCTC11818; Bifidobacterium longum NCTC 11818; Table 5; read-out: Minimal Inhibitory Concentration (MIC)
[3] = test system: C. difficile strain VPI 10463; assay: Hamster model of C. difficile associated cecitis, first experiment (FIG. 1); type: in vivo; settings: C. difficile VPI 10463, three times daily at 50 mg/kg/day, 5-day dosing period, groups of 6
Protocol: In the first experiment (FIG. 1) groups of 6 animals were dosed with approximately 10^7 cells of C. difficile strain VPI 10463 and 24 hours later with a subcutaneous dose of 10 mg/kg clindamycin phosphate.
The procedure as described induced a C. difficile infection in the test animals, from which all animals treated only with vehicle died within 3 days.

S. aureus = assay: MIC susceptibility testing, S. aureus; type: cell-based, Staphyloccus aureus; settings: Staphylococcus aureus, Table 2, read-out: MIC
Protocol: as §1

E. faecium = assay: MIC susceptibility testing, E. faecium; type: cell-based; settings: Enterococcus faecium
Protocol: as §1

M. luteus = assay: MIC susceptibility testing, M. luteus; type: cell-based; settings: Micrococcus luteus; M. luteus 4698; Table 2; read-out: MIC
Protocol: as §1

Micrococcus luteus = assay: In vitro antibacterial activity against Micrococcus luteus during SIF incubation; type: cell-based; settings: after incubation in SIF
Protocol: (§2) Nisin, mersacidin, compound I and compound III were tested for their susceptibility towards enzymatic digestion in the stomach. Nisin, mersacidin and compound III were tested for their susceptibility towards enzymatic digestion in the intestine. The SGF and SIF were based on the standard USP solutions for simulated gastric and simulated intestinal fluids and their activity confirmed against Bovine Serum Albumin (Hilger et al, Clin. Exp. Immunol. 2001, 123, 387-94). The compounds were incubated in SGF or SIF at 37° C. and their concentrations quantified by analytical HPLC (UV detection at 210 nm). The potential degradation of each compound was also monitored qualitatively by measuring in vitro antibacterial activity against Micrococcus luteus.

[4] = Stability in simulated gastric fluid (SGF); type: in vitro ADME; settings: 37° C., analytical HPLC
Protocol: as §2

Water solubility = type: physicochemical; settings: aqueous
From the text: Typically, compounds of the invention were isolated using phosphate buffers.

[5] = rat, 100 mg/kg oral
Protocol: Male Sprague-Dawley rats were dosed with compound I at 100 mg/kg via the oral route. Faeces and urine were collected over a 48 h period in two batches (at 24 h and 48 h post dose). Blood samples were taken at various time points for the first 24 h.

“Deoxy-actagardine B (L-serine methyl ester) monocarboxamide [Compound XXI]” showed an MIC (Clostridium difficile; C. difficile 027C, Table 4A) of 2, an MIC (Clostridium difficile; C. difficile 630, Table 4A) of 4 and an MIC (Clostridium difficile; C. difficile 19126, Table 4A) of 4. It also gave an MIC (Clostridium difficile; C. difficile 37779, Table 4A) of 4.
`CN[C@H](CC(C)C)C(=O)N[C@H]1C(=O)N[C@@H](CC(N)=O)C(=O)N[C@H]2C(=O)N[C@H]3C(=O)N[C@H](C(=O)N[C@H](C(=O)O)c4cc(O)cc(O)c4-c4cc3ccc4O)[C@H](O)c3ccc(c(Cl)c3)Oc3cc2cc(c3O[C@@H]2O[C@H](CO)[C@@H](O)[C@H](O)[C@H]2O[C@H]2C[C@](C)(N)[C@H](O)[C@H](C)O2)Oc2ccc(cc2Cl)[C@H]1O` [Vancomycin, vancomycin, reference compound] showed an MIC (S. pneumoniae) of over 64 µg/mL, an MIC (Bacteroides fragilis) of 32 µg/mL (≈ 22.1 µM) and an MIC (E. faecalis) of 4 µg/mL (≈ 2.76 µM). For the same molecule, the MIC [1] was 64 µg/mL (≈ 44.2 µM), the MIC (S. epidermidis) was 2 µg/mL (≈ 1.38 µM) and the “Minimal Inhibitory Concentration (MIC)” value (E. coli; E. coli DC2 (membrane more susceptible), Table 5, first line) was over 64 µg/mL. For the same molecule, the MIC (E. coli; ATCC25922, E. coli ATCC 25922, Table 5) was over 64 µg/mL, the MIC (E. coli; E. coli DC2 (membrane more susceptible), Table 5, second line) was over 64 µg/mL and the MIC [2] was 1 µg/mL (≈ 0.69 µM). The MIC (Bifidobacterium longum) was 1 to 2 µg/mL (≈ 0.69 to 1.38 µM), the MIC (Clostridium difficile; Clostridioides difficile, C. difficile 027C, Table 4, read-out: MIC) was 0.5 µg/mL (≈ 0.345 µM) and the MIC (Clostridium difficile; Clostridioides difficile, C. difficile 027SM, Table 4, read-out: MIC) was 0.5 µg/mL (≈ 0.345 µM). The MIC (Clostridium difficile; Clostridioides difficile, C. difficile 19126, Table 4, read-out: MIC) was 1 µg/mL (≈ 0.69 µM), the MIC (Clostridium difficile; Clostridioides difficile, C. difficile 37779, Table 4, read-out: MIC) was 1 µg/mL (≈ 0.69 µM) and the MIC (Clostridium difficile; Clostridioides difficile, C. difficile B32, Table 4, read-out: MIC) was 1 µg/mL (≈ 0.69 µM). The MIC (Clostridium difficile; Clostridioides difficile, C. difficile E4, Table 4, read-out: MIC) was 1 µg/mL (≈ 0.69 µM), the MIC (Clostridium difficile; Clostridioides difficile, C. difficile E16, Table 4, read-out: MIC) was 1 µg/mL (≈ 0.69 µM) and the MIC (Clostridium difficile; Clostridioides difficile, C. difficile E101, Table 4, read-out: MIC) was 1 µg/mL (≈ 0.69 µM). The MIC (Clostridium difficile; Clostridioides difficile, C. difficile P24, Table 4, read-out: MIC) was 1 µg/mL (≈ 0.69 µM), the MIC (Clostridium difficile; Clostridioides difficile, C. difficile P49, Table 4, read-out: MIC) was 0.5 µg/mL (≈ 0.345 µM) and the MIC (Clostridium difficile; Clostridioides difficile, C. difficile P59, Table 4, read-out: MIC) was 1 µg/mL (≈ 0.69 µM). For the same molecule, the MIC (Clostridium difficile; Clostridioides difficile, C. difficile P62, Table 4, read-out: MIC) was 0.5 µg/mL (≈ 0.345 µM), the “survival of infected animals” value [3] was “survived for the duration of the entire 5-day dosing period” and the MIC (S. aureus; S. aureus R33) was 1 µg/mL (≈ 0.69 µM). It also gave an MIC (S. aureus; S. aureus SH1000) of 2 µg/mL (≈ 1.38 µM), an MIC (E. faecium; ATCC19579, E. faecium (VSE) ATCC 19579, Table 5, read-out: Minimal Inhibitory Concentration (MIC)) of 0.5 µg/mL (≈ 0.345 µM) and an MIC (E. faecium; ATCC29212, read-out: Minimal Inhibitory Concentration (MIC), E. faecium (VSE) ATCC 29212, Table 5) of 4 µg/mL (≈ 2.76 µM). The MIC (E. faecium; E. faecium 19579, Table 2, read-out: MIC) was 4 µg/mL (≈ 2.76 µM), the MIC (E. faecium; E. faecium 7131121, Table 2, read-out: MIC) was over 64 µg/mL and the MIC (E. faecium; VRE, E. faecium (VRE) (clinical isolate), Table 5, first isolate, read-out: Minimal Inhibitory Concentration (MIC)) was over 64 µg/mL. It also gave an MIC (E. faecium; VRE, E. faecium (VRE) (clinical isolate), Table 5, second isolate, read-out: Minimal Inhibitory Concentration (MIC)) of over 64 µg/mL and an MIC (M. luteus) of 2 µg/mL (≈ 1.38 µM).
In the case of mersacidin, the “in vitro activity against M. luteus during the course of the experiment” value (Micrococcus luteus) is reported as “remained unaltered”.
With “Deoxy-Actagardine B N-[2-hydroxy-2-phenylethylamine]monocarboxamide [Compound XX]” the MIC (Clostridium difficile; C. difficile 027C, Table 4A) was 2, the MIC (Clostridium difficile; C. difficile 630, Table 4A) was 2 and the MIC (Clostridium difficile; C. difficile 19126, Table 4A) was 2. The MIC (Clostridium difficile; C. difficile 37779, Table 4A) was 2.
Molecule “Deoxyactagardine B (N-(2-hydroxyethyl)ethylenediamine) monocarboxamide [Compound XXII]” has an MIC (Clostridium difficile; C. difficile 027C, Table 4A) of 2, an MIC (Clostridium difficile; C. difficile 630, Table 4A) of 2 and an MIC (Clostridium difficile; C. difficile 19126, Table 4A) of 2. It also gave an MIC (Clostridium difficile; C. difficile 37779, Table 4A) of 2.
In the case of `CC[C@H](C)[C@@H]1NC(=O)[C@@H]2NC(=O)[C@H](CC(C)C)NC(=O)[C@H](NC(=O)[C@@H]3CSC[C@@H](N)C(=O)N[C@@H](CO)C(=O)NCC(=O)N[C@@H](Cc4c[nH]c5ccccc45)C(=O)N[C@@H](C(C)C)C(=O)N3)[C@H](C)SC[C@H](NC(=O)[C@H](CCC(=O)O)NC1=O)C(=O)NCC(=O)N[C@H]1C(=O)N[C@@H](CC(C)C)C(=O)N[C@@H](C(C)C)C(=O)N[C@@H](CS[C@H]2C)C(=O)N[C@@H](C)C(=O)N[C@H](C(=O)NCCO)CS[C@H]1C` [Compound I, Deoxy-Actagardine B N-[2-ethanolamine]monocarboxamide], the “degradation in Simulated Gastric Fluid” value [4] is reported as “did not show appreciable degradation”, the solubility (Water solubility) is reported as 15 mg/mL (≈ 7820 µM) and the “material recovered from plasma or urine” value [5] is reported as “No material was recovered”.
Work on “Deoxy-actagardine B (2-hydroxypiperazine) monocarboxamide [Compound XXIII]” yielded an MIC (Clostridium difficile; C. difficile 027C, Table 4A) of 4, an MIC (Clostridium difficile; C. difficile 630, Table 4A) of 2 and an MIC (Clostridium difficile; C. difficile 19126, Table 4A) of 4. The MIC (Clostridium difficile; C. difficile 37779, Table 4A) was 4.
